According to patent US20230085307A1, “PYRIDAZINONE COMPOUND AND HERBICIDE” (NISSAN CHEMICAL CORPORATION, priority 2019, published 2023):

Columns and labels:
southern crabgrass [1] = experiment: Test Example 4: herbicidal effect by soil treatment (Table 19, symbol F); type: in vivo, southern crabgrass (Digitaria ciliaris); conditions: amount of applied herbicide 320 g/ha
Outline: (§1)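 Seeds were sown in sterilized diluvial soil and covered with about 1.5 cm of soil. An emulsion formulation diluted with water to a predetermined herbicide amount was sprayed evenly onto the soil surface. Plants grew in a greenhouse at 25° C. to 30° C., and the effect was scored three weeks after application using criteria from an earlier test.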

green foxtail [2] = experiment: Test Example 4: herbicidal effect by soil treatment (Table 19, symbol G); type: in vivo, green foxtail (Setaria viridis); conditions: amount of applied herbicide 320 g/ha
Outline: as §1

barnyard grass [3] = experiment: Test Example 4: herbicidal effect by soil treatment (Table 19, symbol H); type: in vivo, barnyard grass (Echinochloa crus-galli); conditions: amount of applied herbicide 320 g/ha
Outline: as §1

wild oat [4] = experiment: Test Example 4: herbicidal effect by soil treatment (Table 19, symbol I); type: in vivo, wild oat (Avena fatua); conditions: amount of applied herbicide 320 g/ha
Outline: as §1

blackgrass [5] = experiment: Test Example 4: herbicidal effect by soil treatment (Table 19, symbol J); type: in vivo, blackgrass (Alopecurus myosuroides); conditions: amount of applied herbicide 320 g/ha
Outline: as §1

Italian ryegrass [6] = experiment: Test Example 4: herbicidal effect by soil treatment (Table 19, symbol K); type: in vivo, Italian ryegrass (Lolium multiflorum); conditions: amount of applied herbicide 320 g/ha
Outline: as §1

windgrass [7] = experiment: Test Example 4: herbicidal effect by soil treatment (Table 19, symbol L); type: in vivo, windgrass (Apera spica-venti); conditions: amount of applied herbicide 320 g/ha
Outline: as §1

velvetleaf [8] = experiment: Test Example 4: herbicidal effect by soil treatment (Table 19, symbol M); type: in vivo, velvetleaf (Abutilon theophrasti); conditions: amount of applied herbicide 320 g/ha
Outline: as §1

redroot pigweed [9] = experiment: Test Example 4: herbicidal effect by soil treatment (Table 19, symbol N); type: in vivo, redroot pigweed (Amaranthus retroflexus); conditions: amount of applied herbicide 320 g/ha
Outline: as §1

lambsquarters [10] = experiment: Test Example 4: herbicidal effect by soil treatment (Table 19, symbol O); type: in vivo, lambsquarters (Chenopodium album); conditions: amount of applied herbicide 320 g/ha
Outline: as §1

chickweed [11] = experiment: Test Example 4: herbicidal effect by soil treatment (Table 19, symbol P); type: in vivo, common chickweed (Stellaria media); conditions: amount of applied herbicide 320 g/ha
Outline: as §1

false cleavers [12] = experiment: Test Example 4: herbicidal effect by soil treatment (Table 19, symbol Q); type: in vivo, false cleavers (Galium spurium); conditions: amount of applied herbicide 320 g/ha
Outline: as §1

southern crabgrass [13] = experiment: Test Example 5: herbicidal effect by foliage application, plastic box (Table 20, symbol F); type: in vivo, southern crabgrass (Digitaria ciliaris); conditions: foliage application, 320 g/ha, evaluated three weeks after application
Outline: (§2)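 Plants sown in sterilized diluvial soil and grown 14 days in a greenhouse at 25° C to 30° C, then sprayed on the foliage with the compound's emulsion diluted in water to a predetermined herbicide amount. Injury to weeds and crops scored three weeks after application on a visual rating scale.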

green foxtail [14] = experiment: Test Example 5: herbicidal effect by foliage application, plastic box (Table 20, symbol G); type: in vivo, green foxtail (Setaria viridis); conditions: foliage application, 320 g/ha, evaluated three weeks after application
Outline: as §2

barnyard grass [15] = experiment: Test Example 5: herbicidal effect by foliage application, plastic box (Table 20, symbol H); type: in vivo, barnyard grass (Echinochloa crus-galli); conditions: foliage application, 320 g/ha, evaluated three weeks after application
Outline: as §2

wild oat [16] = experiment: Test Example 5: herbicidal effect by foliage application, plastic box (Table 20, symbol I); type: in vivo, wild oat (Avena fatua); conditions: foliage application, 320 g/ha, evaluated three weeks after application
Outline: as §2

blackgrass [17] = experiment: Test Example 5: herbicidal effect by foliage application, plastic box (Table 20, symbol J); type: in vivo, blackgrass (Alopecurus myosuroides); conditions: foliage application, 320 g/ha, evaluated three weeks after application
Outline: as §2

Italian ryegrass [18] = experiment: Test Example 5: herbicidal effect by foliage application, plastic box (Table 20, symbol K); type: in vivo, Italian ryegrass (Lolium multiflorum); conditions: foliage application, 320 g/ha, evaluated three weeks after application
Outline: as §2

windgrass [19] = experiment: Test Example 5: herbicidal effect by foliage application, plastic box (Table 20, symbol L); type: in vivo, windgrass (Apera spica-venti); conditions: foliage application, 320 g/ha, evaluated three weeks after application
Outline: as §2

velvetleaf [20] = experiment: Test Example 5: herbicidal effect by foliage application, plastic box (Table 20, symbol M); type: in vivo, velvetleaf (Abutilon theophrasti); conditions: foliage application, 320 g/ha, evaluated three weeks after application
Outline: as §2

redroot pigweed [21] = experiment: Test Example 5: herbicidal effect by foliage application, plastic box (Table 20, symbol N); type: in vivo, redroot pigweed (Amaranthus retroflexus); conditions: foliage application, 320 g/ha, evaluated three weeks after application
Outline: as §2

lambsquarters [22] = experiment: Test Example 5: herbicidal effect by foliage application, plastic box (Table 20, symbol O); type: in vivo, lambsquarters (Chenopodium album); conditions: foliage application, 320 g/ha, evaluated three weeks after application
Outline: as §2

chickweed [23] = experiment: Test Example 5: herbicidal effect by foliage application, plastic box (Table 20, symbol P); type: in vivo, common chickweed (Stellaria media); conditions: foliage application, 320 g/ha, evaluated three weeks after application
Outline: as §2

false cleavers [24] = experiment: Test Example 5: herbicidal effect by foliage application, plastic box (Table 20, symbol Q); type: in vivo, false cleavers (Galium spurium); conditions: foliage application, 320 g/ha, evaluated three weeks after application
Outline: as §2

persian speedwell = experiment: Test Example 5: herbicidal effect by foliage application, plastic box (Table 20, symbol R); type: in vivo, Persian speedwell (Veronica persica); conditions: foliage application, 320 g/ha, evaluated three weeks after application
Outline: as §2

COc1cccc(OC)c1-c1sc2ccc(Cl)cc2c1-c1c(O)c(C)nn(C)c1=O [2-121]
F: southern crabgrass, herbicidal effect rating (southern crabgrass [1]): 0 (Herbicidal rate of 5% or less (almost no effect)) | G: green foxtail, herbicidal effect rating (green foxtail [2]): 0 (Herbicidal rate of 5% or less (almost no effect)) | H: barnyard grass, herbicidal effect rating (barnyard grass [3]): 0 (Herbicidal rate of 5% or less (almost no effect)) | I: wild oat, herbicidal effect rating (wild oat [4]): 0 (Herbicidal rate of 5% or less (almost no effect)) | J: blackgrass, herbicidal effect rating (blackgrass [5]): 0 (Herbicidal rate of 5% or less (almost no effect)) | K: Italian ryegrass, herbicidal effect rating (Italian ryegrass [6]): 0 (Herbicidal rate of 5% or less (almost no effect)) | L: windgrass, herbicidal effect rating (windgrass [7]): 0 (Herbicidal rate of 5% or less (almost no effect)) | M: velvetleaf, herbicidal effect rating (velvetleaf [8]): 0 (Herbicidal rate of 5% or less (almost no effect)) | N: redroot pigweed, herbicidal effect rating (redroot pigweed [9]): 0 (Herbicidal rate of 5% or less (almost no effect)) | O: lambsquarters, herbicidal effect rating (lambsquarters [10]): 0 (Herbicidal rate of 5% or less (almost no effect)) | P: chickweed, herbicidal effect rating (chickweed [11]): 3 (Herbicidal rate of 40% or more and less than 70%) | Q: false cleavers, herbicidal effect rating (false cleavers [12]): 0 (Herbicidal rate of 5% or less (almost no effect)) | herbicidal effect on F: southern crabgrass (southern crabgrass [13]): 0 (Herbicidal rate of 5% or less (almost no effect)) | herbicidal effect on G: green foxtail (green foxtail [14]): 0 (Herbicidal rate of 5% or less (almost no effect)) | herbicidal effect on H: barnyard grass (barnyard grass [15]): 0 (Herbicidal rate of 5% or less (almost no effect)) | herbicidal effect on I: wild oat (wild oat [16]): 0 (Herbicidal rate of 5% or less (almost no effect)) | herbicidal effect on J: blackgrass (blackgrass [17]): 0 (Herbicidal rate of 5% or less (almost no effect)) | herbicidal effect on K: Italian ryegrass (Italian ryegrass [18]): 0 (Herbicidal rate of 5% or less (almost no effect)) | herbicidal effect on L: windgrass (windgrass [19]): 0 (Herbicidal rate of 5% or less (almost no effect)) | herbicidal effect on M: velvetleaf (velvetleaf [20]): 0 (Herbicidal rate of 5% or less (almost no effect)) | herbicidal effect on N: redroot pigweed (redroot pigweed [21]): 0 (Herbicidal rate of 5% or less (almost no effect)) | herbicidal effect on O: lambsquarters (lambsquarters [22]): 0 (Herbicidal rate of 5% or less (almost no effect)) | herbicidal effect on P: chickweed (chickweed [23]): 3 (Herbicidal rate of 40% or more and less than 70%) | herbicidal effect on Q: false cleavers (false cleavers [24]): 2 (Herbicidal rate of 20% or more and less than 40%) | herbicidal effect on R: persian speedwell (persian speedwell): 0 (Herbicidal rate of 5% or less (almost no effect))
